# From article PMC4770715, “LIM kinase inhibitors disrupt mitotic microtubule organization and impair tumor cell proliferation” (Oncotarget, 2015)
# Experiments:
# Experiment in all cases: biochemical
# Parameters in all cases: KINOMEscan active-site competition binding, percent of control (100 = no competition)
# Conditions in all cases: competition binding, percent control
# [1] = biological target: T1, ASK1 (Homo sapiens, UniProt Q99683)
# T1 construct: gene MAP3K5
# [2] = biological target: CSNK1E (Homo sapiens, UniProt P49674)
# CSNK1E, sequence (P49674 whole entry): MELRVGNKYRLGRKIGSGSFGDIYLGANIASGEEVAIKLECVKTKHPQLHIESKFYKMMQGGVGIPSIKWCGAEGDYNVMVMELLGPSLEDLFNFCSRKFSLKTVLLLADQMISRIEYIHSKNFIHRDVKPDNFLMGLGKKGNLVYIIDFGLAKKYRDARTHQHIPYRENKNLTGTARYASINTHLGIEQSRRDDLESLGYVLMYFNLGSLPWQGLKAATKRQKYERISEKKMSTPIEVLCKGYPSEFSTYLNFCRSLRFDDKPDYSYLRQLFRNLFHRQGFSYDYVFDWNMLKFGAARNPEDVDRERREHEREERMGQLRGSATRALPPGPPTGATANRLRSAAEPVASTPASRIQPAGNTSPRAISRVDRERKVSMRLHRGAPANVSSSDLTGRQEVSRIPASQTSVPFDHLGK
# [3] = biological target: CSNK1G1 (Homo sapiens, UniProt Q9HCP0)
# [4] = biological target: T2, DCAMKL2 (Homo sapiens, UniProt Q8N568)
# T2 construct: gene DCLK2
# T2 sequence (Q8N568 whole entry): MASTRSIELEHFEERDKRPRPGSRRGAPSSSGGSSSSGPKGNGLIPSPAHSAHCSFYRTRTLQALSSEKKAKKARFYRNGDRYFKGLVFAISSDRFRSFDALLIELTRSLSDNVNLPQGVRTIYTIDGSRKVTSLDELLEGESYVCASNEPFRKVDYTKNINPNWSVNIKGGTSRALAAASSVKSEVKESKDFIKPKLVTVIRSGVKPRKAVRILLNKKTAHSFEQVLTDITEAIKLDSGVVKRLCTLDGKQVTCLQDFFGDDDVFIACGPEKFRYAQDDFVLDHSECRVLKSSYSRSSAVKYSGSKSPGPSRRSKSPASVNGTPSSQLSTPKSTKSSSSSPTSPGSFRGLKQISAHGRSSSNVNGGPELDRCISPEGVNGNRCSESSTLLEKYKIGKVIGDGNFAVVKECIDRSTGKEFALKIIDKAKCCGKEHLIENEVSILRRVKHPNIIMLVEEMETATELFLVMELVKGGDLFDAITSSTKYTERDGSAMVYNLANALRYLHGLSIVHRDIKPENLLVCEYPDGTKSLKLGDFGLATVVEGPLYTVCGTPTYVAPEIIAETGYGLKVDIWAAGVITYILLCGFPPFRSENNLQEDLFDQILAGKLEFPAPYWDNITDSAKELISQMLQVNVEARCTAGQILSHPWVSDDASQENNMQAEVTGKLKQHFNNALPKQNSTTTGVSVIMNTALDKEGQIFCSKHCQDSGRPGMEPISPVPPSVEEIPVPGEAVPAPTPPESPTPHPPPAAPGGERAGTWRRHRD
# [5] = biological target: EPHB6 (Homo sapiens, UniProt O15197)
# [6] = biological target: T3, ERK5 (Homo sapiens, UniProt Q13164)
# T3 construct: gene MAPK7
# T3 sequence (Q13164 whole entry): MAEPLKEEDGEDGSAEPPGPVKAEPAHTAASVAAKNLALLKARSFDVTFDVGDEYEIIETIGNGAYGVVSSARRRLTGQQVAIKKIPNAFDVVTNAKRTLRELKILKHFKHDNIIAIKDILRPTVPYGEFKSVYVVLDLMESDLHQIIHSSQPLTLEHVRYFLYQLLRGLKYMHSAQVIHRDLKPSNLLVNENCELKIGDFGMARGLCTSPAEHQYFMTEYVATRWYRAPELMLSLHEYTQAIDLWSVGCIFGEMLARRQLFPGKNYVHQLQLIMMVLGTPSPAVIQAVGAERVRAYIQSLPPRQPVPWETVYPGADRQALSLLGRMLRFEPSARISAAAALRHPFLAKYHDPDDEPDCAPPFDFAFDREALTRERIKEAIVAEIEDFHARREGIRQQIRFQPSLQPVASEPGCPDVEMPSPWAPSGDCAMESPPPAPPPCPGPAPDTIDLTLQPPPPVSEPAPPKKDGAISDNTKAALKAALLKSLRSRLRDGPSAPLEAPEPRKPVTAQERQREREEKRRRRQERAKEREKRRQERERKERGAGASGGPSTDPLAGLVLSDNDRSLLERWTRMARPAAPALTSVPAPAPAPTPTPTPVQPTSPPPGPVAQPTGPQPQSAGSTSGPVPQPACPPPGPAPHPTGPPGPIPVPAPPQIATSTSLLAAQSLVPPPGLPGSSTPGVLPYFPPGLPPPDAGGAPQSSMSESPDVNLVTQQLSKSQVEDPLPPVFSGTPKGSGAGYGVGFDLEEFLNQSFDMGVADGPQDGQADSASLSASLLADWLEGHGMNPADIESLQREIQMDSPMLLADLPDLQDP
# [7] = biological target: FLT3(R834Q) (Homo sapiens, UniProt P36888, R834Q)
# [8] = biological target: FRK (Homo sapiens, UniProt P42685)
# FRK, sequence (P42685 whole entry): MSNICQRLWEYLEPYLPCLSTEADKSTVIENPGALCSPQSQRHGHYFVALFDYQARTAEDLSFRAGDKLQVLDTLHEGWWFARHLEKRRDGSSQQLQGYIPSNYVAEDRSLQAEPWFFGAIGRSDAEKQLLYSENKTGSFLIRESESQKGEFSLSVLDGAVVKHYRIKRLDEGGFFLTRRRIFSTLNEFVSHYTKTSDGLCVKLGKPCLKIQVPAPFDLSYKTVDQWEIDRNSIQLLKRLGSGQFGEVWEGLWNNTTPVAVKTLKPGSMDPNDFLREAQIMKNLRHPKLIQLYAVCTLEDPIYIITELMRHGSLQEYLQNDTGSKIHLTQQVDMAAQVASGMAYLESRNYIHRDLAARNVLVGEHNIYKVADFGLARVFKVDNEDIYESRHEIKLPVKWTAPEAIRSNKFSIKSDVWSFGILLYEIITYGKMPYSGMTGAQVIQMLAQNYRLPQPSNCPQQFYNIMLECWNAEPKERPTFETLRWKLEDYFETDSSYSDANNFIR
# [9] = biological target: GSK3B (Homo sapiens, UniProt P49841)
# GSK3B, sequence (P49841 whole entry): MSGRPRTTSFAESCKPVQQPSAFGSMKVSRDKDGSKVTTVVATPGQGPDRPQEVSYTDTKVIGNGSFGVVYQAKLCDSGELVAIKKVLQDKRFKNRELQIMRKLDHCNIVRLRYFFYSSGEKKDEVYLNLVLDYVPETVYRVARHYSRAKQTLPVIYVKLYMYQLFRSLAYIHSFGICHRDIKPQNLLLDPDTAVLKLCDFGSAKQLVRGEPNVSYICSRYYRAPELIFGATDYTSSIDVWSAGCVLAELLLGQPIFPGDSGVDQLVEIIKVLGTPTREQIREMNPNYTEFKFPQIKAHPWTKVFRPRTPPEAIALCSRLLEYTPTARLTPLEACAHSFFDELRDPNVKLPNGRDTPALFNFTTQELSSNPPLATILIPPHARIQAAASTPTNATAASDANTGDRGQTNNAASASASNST
# [10] = biological target: T4, IKK-beta (Homo sapiens, UniProt O14920)
# T4 construct: gene IKBKB
# [11] = biological target: MET (Homo sapiens, UniProt P08581)
# MET, sequence (P08581 whole entry): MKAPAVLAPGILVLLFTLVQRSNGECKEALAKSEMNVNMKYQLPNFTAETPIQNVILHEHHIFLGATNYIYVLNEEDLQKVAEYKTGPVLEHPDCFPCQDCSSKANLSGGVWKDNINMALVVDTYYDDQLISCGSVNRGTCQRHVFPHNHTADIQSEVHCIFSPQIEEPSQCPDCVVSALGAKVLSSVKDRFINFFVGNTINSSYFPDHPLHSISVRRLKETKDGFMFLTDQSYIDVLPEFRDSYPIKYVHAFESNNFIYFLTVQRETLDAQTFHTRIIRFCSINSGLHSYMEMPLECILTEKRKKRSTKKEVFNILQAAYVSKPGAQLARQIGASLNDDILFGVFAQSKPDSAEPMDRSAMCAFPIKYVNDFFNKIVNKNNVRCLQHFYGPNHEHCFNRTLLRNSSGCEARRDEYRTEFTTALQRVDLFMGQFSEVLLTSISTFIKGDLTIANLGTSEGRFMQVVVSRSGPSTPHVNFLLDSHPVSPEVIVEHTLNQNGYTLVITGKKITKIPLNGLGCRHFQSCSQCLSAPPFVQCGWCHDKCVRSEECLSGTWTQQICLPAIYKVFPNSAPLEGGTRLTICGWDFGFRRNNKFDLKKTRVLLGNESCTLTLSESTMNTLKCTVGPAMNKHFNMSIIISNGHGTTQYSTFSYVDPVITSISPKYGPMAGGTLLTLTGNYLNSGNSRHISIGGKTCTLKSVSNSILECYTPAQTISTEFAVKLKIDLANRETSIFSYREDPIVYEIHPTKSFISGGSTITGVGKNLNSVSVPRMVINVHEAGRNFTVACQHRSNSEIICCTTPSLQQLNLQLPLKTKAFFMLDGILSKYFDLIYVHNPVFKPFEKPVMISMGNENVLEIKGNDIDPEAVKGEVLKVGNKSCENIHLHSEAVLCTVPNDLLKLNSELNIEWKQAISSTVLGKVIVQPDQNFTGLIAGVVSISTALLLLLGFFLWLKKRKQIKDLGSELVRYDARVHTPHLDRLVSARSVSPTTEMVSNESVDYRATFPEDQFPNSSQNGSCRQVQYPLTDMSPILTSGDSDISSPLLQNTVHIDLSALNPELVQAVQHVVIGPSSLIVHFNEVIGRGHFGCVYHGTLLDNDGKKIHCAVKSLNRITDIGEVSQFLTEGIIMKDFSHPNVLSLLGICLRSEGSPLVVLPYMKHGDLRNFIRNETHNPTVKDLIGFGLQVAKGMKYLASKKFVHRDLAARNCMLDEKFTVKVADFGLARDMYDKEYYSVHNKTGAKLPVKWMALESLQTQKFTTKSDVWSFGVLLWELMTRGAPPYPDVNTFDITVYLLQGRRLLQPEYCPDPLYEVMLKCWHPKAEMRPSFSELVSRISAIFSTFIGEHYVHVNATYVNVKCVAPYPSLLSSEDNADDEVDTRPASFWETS
# [12] = biological target: MST1R (Homo sapiens, UniProt Q04912)
# [13] = biological target: PKNB(M.tuberculosis) (Mycobacterium tuberculosis, UniProt P9WI81)
# [14] = biological target: PLK3 (Homo sapiens, UniProt Q9H4B4)
# PLK3, sequence (Q9H4B4 whole entry): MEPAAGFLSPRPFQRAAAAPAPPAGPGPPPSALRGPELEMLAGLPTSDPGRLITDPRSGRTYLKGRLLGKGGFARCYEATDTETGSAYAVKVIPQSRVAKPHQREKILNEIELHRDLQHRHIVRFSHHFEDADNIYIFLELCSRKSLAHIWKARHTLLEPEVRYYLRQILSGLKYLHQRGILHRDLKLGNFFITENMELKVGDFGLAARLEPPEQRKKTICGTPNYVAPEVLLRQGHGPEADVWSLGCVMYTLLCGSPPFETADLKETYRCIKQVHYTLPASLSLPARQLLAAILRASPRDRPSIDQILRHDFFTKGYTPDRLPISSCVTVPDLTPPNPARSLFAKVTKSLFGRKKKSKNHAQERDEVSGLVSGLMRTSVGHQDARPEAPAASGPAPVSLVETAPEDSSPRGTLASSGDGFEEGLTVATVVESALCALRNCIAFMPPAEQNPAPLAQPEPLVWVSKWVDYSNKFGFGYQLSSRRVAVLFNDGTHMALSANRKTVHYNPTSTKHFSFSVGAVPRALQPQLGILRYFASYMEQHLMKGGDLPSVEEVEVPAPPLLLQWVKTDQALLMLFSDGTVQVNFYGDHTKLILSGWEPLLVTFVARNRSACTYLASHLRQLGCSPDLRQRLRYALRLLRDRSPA
# [15] = biological target: PRKD3 (Homo sapiens, UniProt O94806)
# [16] = biological target: ROCK1 (Homo sapiens, UniProt Q13464)
# [17] = biological target: T5, RPS6KA4(Kin.Dom.2-C-terminal) (Homo sapiens, UniProt O75676)
# T5 construct: Kin.Dom.2-C-terminal
# [18] = biological target: STK16 (Homo sapiens, UniProt O75716)
# [19] = biological target: TLK2 (Homo sapiens, UniProt Q86UE8)
# [20] = biological target: TSSK1B (Homo sapiens, UniProt Q9BXA7)
# [21] = biological target: TTK (Homo sapiens, UniProt P33981)
# [22] = biological target: T6, p38-alpha (Homo sapiens, UniProt Q16539)
# T6 construct: gene MAPK14
# [23] = biological target: T7, p38-gamma (Homo sapiens, UniProt P53778)
# T7 construct: gene MAPK12
SMILES,remaining binding at 10 µM [1],remaining binding at 10 µM [2],remaining binding at 10 µM [3],remaining binding at 10 µM [4],remaining binding at 10 µM [5],remaining binding at 10 µM [6],remaining binding at 10 µM [7],remaining binding at 10 µM [8],remaining binding at 10 µM [9],remaining binding at 10 µM [10],remaining binding at 10 µM [11],remaining binding at 10 µM [12],remaining binding at 10 µM [13],remaining binding at 10 µM [14],remaining binding at 10 µM [15],remaining binding at 10 µM [16],remaining binding at 10 µM [17],remaining binding at 10 µM [18],remaining binding at 10 µM [19],remaining binding at 10 µM [20],also measured
"COc1ccc(-c2cnccc2-c2cnc(NC(=O)C(C)C)s2)c(C(F)(F)F)c1 [CRT0105446, N-{5-[3-(4-Methoxy-2-trifluoromethyl-phenyl)-pyridin-4-yl]-hiazol-2-yl}-isobutyramide]",100%,42%,94%,39%,86%,86%,88%,98%,82%,88%,80%,100%,82%,97%,98%,86%,57%,5%,99%,80%,remaining binding at 10 µM [21]: 32%; remaining binding at 10 µM [22]: 93%; remaining binding at 10 µM [23]: 100%
"Cc1ccc(-c2cnccc2-c2cnc(Nc3ccc(O)cc3)s2)c(Cl)c1 [CRT0105950, 4-{5-[3-(2-Chloro-4-methyl-phenyl)-pyridin-4-yl]-thiazol-2-ylamino}-phenol]",100%,11%,82%,77%,17%,93%,18%,59%,86%,88%,16%,92%,19%,44%,11%,79%,72%,8.7%,56%,100%,remaining binding at 10 µM [21]: 1.7%; remaining binding at 10 µM [22]: 87%; remaining binding at 10 µM [23]: 100%
